From publication PMC8219695 (Nature Communications, 2021)
Several values for one entry are separate records, joined by “and”; a condition that tells them apart may be missing. Equal entries are not always repeated.

Tests used:
mMOR [1] = biological target: T1, mMOR (Mus musculus, UniProt P42866); assay: [125I]BNtxA radioligand competition binding, mouse MOR
T1 construct: signal peptide (heterologous, not specified) (N); expressed in transfected cells; pcDNA3.1(+) construct made in house

mKOR = biological target: T2, mKOR (Mus musculus, UniProt P33534); assay: [125I]BNtxA radioligand competition binding, mouse KOR
T2 construct: expressed in transfected cells; membranes

mDOR [2] = biological target: T3, mDOR (Mus musculus, UniProt P32300); assay: [125I]BNtxA radioligand competition binding, mouse DOR
T3 construct: expressed in transfected cells

mMOR [3] = biological target: T1, mMOR; assay: CAMYEL BRET cAMP agonist assay at mMOR; assay type: cell-based; settings: for cAMP %: single replicates, source data Fig 6b
hMOR = biological target: T4, hMOR (Homo sapiens, UniProt P35372); assay: CAMYEL BRET cAMP agonist assay at hMOR; assay type: cell-based; settings: for cAMP %: hMOR, single replicates, source data Fig 6c
T4 construct: expressed in transfected cells; plasmid a gift from Dr. Nevin Lambert

mDOR [4] = biological target: T3, mDOR; assay: CAMYEL BRET cAMP agonist assay at mDOR; assay type: cell-based; settings: for Agonist activity of 7OH analogs at mDOR: single replicate values, Supplementary Figure 7B, listed as 7-OH-Mitragynine
hDOR = hDOR (Homo sapiens, UniProt P41143); assay: CAMYEL BRET cAMP agonist assay at hDOR; assay type: cell-based; settings: for Agonist activity of 7OH analogs at hDOR: single replicate values, Supplementary Figure 7A, listed as 7-OH-Mitragynine
rKOR = biological target: T5, rKOR (Rattus norvegicus, UniProt P34975); assay: CAMYEL BRET cAMP agonist assay at rKOR; assay type: cell-based; settings: individual replicates, Supplementary Figure 8B source data
T5 construct: expressed in transfected cells

hKOR = hKOR (Homo sapiens, UniProt P41145); assay: CAMYEL BRET cAMP agonist assay at hKOR; assay type: cell-based; settings: individual replicates, Supplementary Figure 8A source data
CD1 mice = assay: Tail-flick antinociception in CD1 mice; assay type: in vivo, mouse; settings: Fig 9b; 7OH 2 mg/kg, sc; individual animals

CC[C@@H]1CN2CC[C@@]3(O)C(=Nc4cccc(OC)c43)[C@@H]2C[C@@H]1/C(=C\OC)C(=O)OC [7OH, 7-Hydroxymitragynine, reference compound]
Ki (mMOR [1]): 0.0215 ± 0.0008 µM | Ki (mKOR): 0.119 ± 0.0021 µM | Ki (mDOR [2]): 0.0885 ± 0.0099 µM | EC50 (mMOR [3]): 0.048 µM | cAMP % (mMOR [3]; Log[drug] (M) -5, mMOR): 54.7418% and 39.306% and 62.8715% and 90.7674% and 85.3805% and 81.3701% and 80.1578% and 78.2326% and 79.4832% | cAMP % (mMOR [3]; Log[drug] (M) -6, mMOR): 51.4904% and 44.0439% and 41.1377% and 71.7778% and 87.0279% and 84.9352% and 65.6946% and 62.0616% and 68.2077% | cAMP % (mMOR [3]; Log[drug] (M) -7, mMOR): 31.3362% and 29.5321% and 20.0587% and 64.2387% and 61.8389% and 74.7851% and 53.7172% and 48.585% and 45.7301% | cAMP % (mMOR [3]; Log[drug] (M) -8, mMOR): 9.25% and 16.4555% and 10.0292% and 22.5933% and 31.4368% and 25.3107% and 17.3146% and 8.444% and 13.6716% | cAMP % (mMOR [3]; Log[drug] (M) -9, mMOR): 6.25% and 5.067% and 3.569% and -0.5857% and 7.672% and -7.0867% and 8.23% and -1.022% and 10.8029% | cAMP % (mMOR [3]; Log[drug] (M) -10, mMOR): 12.6265% and -11.9755% and 9.001% and 8.7384% and -5.2017% and 8.648% and -2.705% and -3.188% and 5.894% | cAMP % (mMOR [3]; Log[drug] (M) -11, mMOR): -0.9102% and -0.5945% and 1.505% and 10.3177% and 11.6% and 5.328% and 6.124% and -1.189% and -0.6754% | cAMP % (mMOR [3]; Log[drug] (M) -13, mMOR, cAMP inhibition as % of DAMGO): 3.306% and 2.892% and -4.359% and 9.797% and 10.0834% and 11.919% and 5.129% and 4.129% and 1.2769% | Emax (mMOR [3]; mMOR, maximal inhibitory effect on cAMP levels relative to DAMGO): 70% | Emax (hMOR): 96% | cAMP % (hMOR; Log[drug] (M) -5): 88.4213% and 90.605% and 95.9962% and 96.6598% and 92.1499% and 89.6322% and 104.97% and 106.65% and 107.127% | cAMP % (hMOR; Log[drug] (M) -6): 85.9913% and 88.2699% and 100.077% and 95.6224% and 98.6028% and 95.7246% and 101.519% and 93.2699% and 100.898% | cAMP % (hMOR; Log[drug] (M) -7): 74.1823% and 79.6011% and 86.6364% and 71.3053% and 75.9463% and 78.9671% and 86.5888% and 87.8073% and 87.9307% | cAMP % (hMOR; Log[drug] (M) -8): 47.9539% and 40.673% and 45.9228% and 28.5173% and 37.309% and 37.8989% and 36.8098% and 40.2437% and 43.4509% | cAMP % (hMOR; Log[drug] (M) -9): -5.159% and -0.2818% and 15.9197% and 2.836% and 1.425% and -4.261% and 10.2218% and -0.8382% and 19.3398% | cAMP % (hMOR; Log[drug] (M) -10): 2.406% and -6.901% and 4.4945% and -1.371% and 5.724% and -0.06095% and -1.689% and 0.384% and 1.305% | cAMP % (hMOR; Log[drug] (M) -11): 10.0741% and 2.867% and -1.276% and 14.2755% and -12.2251% and 5.789% and 12.061% and -4.689% and 0.8824% | cAMP % (hMOR; Log[drug] (M) -13, cAMP inhibition as % of DAMGO): 3.998% and -9.01% and 9.508% and 14.9262% and 7.334% and 14.594% and 2.431% and 9.511% and 1.874% | EC50 (mDOR [4]): 0.0714 µM | Agonist activity of 7OH analogs at mDOR (mDOR [4]; Log[drug] (M) -5): 79.5205 and 79.1947 and 68.9488 and 85.2247 and 78.2035 and 78.3957 and 62.0758 and 81.7668 and 72.4775 | Agonist activity of 7OH analogs at mDOR (mDOR [4]; Log[drug] (M) -6): 49.9165 and 58.342 and 65.4236 and 68.6722 and 65.6062 and 68.2461 and 72.0352 and 62.2673 and 61.4936 | Agonist activity of 7OH analogs at mDOR (mDOR [4]; Log[drug] (M) -7): 29.0999 and 46.5592 and 41.3409 and 38.1857 and 36.2209 and 62.8298 and 64.7985 and 75.1004 | Agonist activity of 7OH analogs at mDOR (mDOR [4]; Log[drug] (M) -8): 17.0946 and 20.9939 and 16.1181 and 8.745 and 16.0659 and 5.863 and 49.6952 and 40.7941 and 63.5779 | Agonist activity of 7OH analogs at mDOR (mDOR [4]; Log[drug] (M) -9): 27.3274 and 1.192 and 34.2965 and 12.9525 and -4.552 and -8.401 and 25.2583 and 24.354 and 24.6431 | Agonist activity of 7OH analogs at mDOR (mDOR [4]; Log[drug] (M) -10): 39.904 and 39.7156 and 42.1881 and 15.8228 and 9.006 and 14.7091 and 41.1226 and 23.2827 and 29.2586 | Agonist activity of 7OH analogs at mDOR (mDOR [4]; Log[drug] (M) -11): 3.455 and 6.714 and 6.951 and -3.421 and 2.4315 and 1.875 and 9.138 and 13.5385 | Agonist activity of 7OH analogs at mDOR (mDOR [4]; Log[drug] (M) -13): 3.619 and 5.368 and -8.987 and -7.007 and 2.297 and 7.3103 and -1.541 and -0.9135 and 2.455 | Emax (mDOR [4]; read-out: Emax): 72% | EC50 (hDOR): 0.0999 µM | Agonist activity of 7OH analogs at hDOR (hDOR; Log[drug] (M) -5): 59.4902 and 54.7394 and 48.113 and 45.4731 and 42.3531 and 41.8085 and 33.7355 and 48.8189 and 36.1755 | Agonist activity of 7OH analogs at hDOR (hDOR; Log[drug] (M) -6): 47.0072 and 54.0661 and 57.5431 and 39.2612 and 45.3193 and 38.3255 and 32.249 and 29.9213 and 37.5943 | Agonist activity of 7OH analogs at hDOR (hDOR; Log[drug] (M) -7): 27.5943 and 29.9093 and 13.7827 and 13.3703 and 19.5028 and 21.8057 and 32.1543 and 37.3674 and 42.4632 | Agonist activity of 7OH analogs at hDOR (hDOR; Log[drug] (M) -8): 27.0326 and 26.8622 and 6.318 and -2.952 and 5.202 and 3.255 and 18.5072 and 16.8026 and 16.758 | Agonist activity of 7OH analogs at hDOR (hDOR; Log[drug] (M) -9): 15.8661 and 3.122 and 22.479 and 1.833 and -4.308 and 2.475 and 15.4988 and 8.368 and 7.075 | Agonist activity of 7OH analogs at hDOR (hDOR; Log[drug] (M) -10): 31.7942 and 19.5741 and 16.1123 and 10.5331 and 9.484 and 5.51 and 21.6698 | Agonist activity of 7OH analogs at hDOR (hDOR; Log[drug] (M) -11): 10.918 and -1.6818 and 2.572 and 2.605 and 5.418 and 12.5121 and 11.3973 and 0.7522 and -0.994 | Agonist activity of 7OH analogs at hDOR (hDOR; Log[drug] (M) -13): 3.025 and -6.776 and 3.7513 and 10.1702 and 6.174 and 15.4423 and -4.715 and 5.3718 and -0.6565 | Emax (hDOR; read-out: Emax): 45% | Agonist activity of 7OH analogs at rKOR (rKOR; Log [drug](M) -5): 51.4853 and 69.9742 and 40.1102 and 17.9877 and 23.0672 and 30.6086 and 23.1026 and 36.1112 and 26.5447 | Agonist activity of 7OH analogs at rKOR (rKOR; Log [drug](M) -6): 50.3386 and 47.4584 and 37.1736 and 16.4913 and 27.1082 and 15.3746 and 22.6508 and 23.988 and 23.2951 | Agonist activity of 7OH analogs at rKOR (rKOR; Log [drug](M) -7): 32.3706 and 5.504 and 6.859 and 19.3779 and 10.5115 and 15.4551 and 8.6 and 9.151 and 16.9313 | Agonist activity of 7OH analogs at rKOR (rKOR; Log [drug](M) -8): 4.174 and 5.52 and 21.8967 and -3.058 and 2.36 and 0.6978 and 14.0563 and 6.31 and 24.1641 | Agonist activity of 7OH analogs at rKOR (rKOR; Log [drug](M) -9): 4.922 and -12.3356 and 11.254 and 8.301 and 17.6392 and 14.4513 and 3.607 and 6.21 and -1.551 | Agonist activity of 7OH analogs at rKOR (rKOR; Log [drug](M) -10): -1.1625 and -7.143 and 8.305 and 14.5638 and 5.983 and 1.382 and -0.5163 and -2.6368 and 4.024 | Agonist activity of 7OH analogs at rKOR (rKOR; Log [drug](M) -11): 3.848 and 0.4662 and 0.6482 and 7.796 and 8.5204 and -1.878 and 0.3369 and -2.372 and 2.035 | Agonist activity of 7OH analogs at rKOR (rKOR; Log [drug](M) -13): 5.7561 and 2.46 and -0.5992 and 11.3924 and -1.857 and 11.6902 and 1.603 and -2.596 and 3.807 | Agonist activity of 7OH analogs at hKOR (hKOR; Log [drug](M) -5): 25.1107 and 37.2516 and 25.09 and 18.6326 and 7.697 and 7.056 and 12.3573 and 15.4119 and 15.9917 | Agonist activity of 7OH analogs at hKOR (hKOR; Log [drug](M) -6): 26.3842 and 27.9158 and 17.2556 and 19.1124 and 15.0208 and 6.652 and 13.1771 and 3.299 and 8.814 | Agonist activity of 7OH analogs at hKOR (hKOR; Log [drug](M) -7): 10.6234 and 4.588 and 26.8644 and 8.68 and -0.2355 and 14.6509 and 3.557 and -6.963 and -8.284 | Agonist activity of 7OH analogs at hKOR (hKOR; Log [drug](M) -8): 5.978 and -10.4494 and 7.122 and 8.973 and 3.679 and 0.5669 and 3.537 and -8.354 and -5.217 | Agonist activity of 7OH analogs at hKOR (hKOR; Log [drug](M) -9): 4.358 and -4.206 and -18.6896 and -3.311 and 1.614 and -2.537 and 1.131 and 5.305 and 46.2002 | Agonist activity of 7OH analogs at hKOR (hKOR; Log [drug](M) -10): -9.33 and 0.6018 and -2.152 and 0.113 and -1.397 and 4.8046 and -5.84 and -6.29 and 4.4418 | Agonist activity of 7OH analogs at hKOR (hKOR; Log [drug](M) -11): 2.533 and -16.0954 and -7.281 and -0.5606 and -1.386 and 5.188 and 3.6558 and -6.195 and -4.675 | Agonist activity of 7OH analogs at hKOR (hKOR; Log [drug](M) -13): -2.907 and -1.906 and 4.813 and 2.257 and -10 and 7.743 and -0.9804 and -0.456 and 1.436 | Tail flick (%MPE) (CD1 mice): 100.00 %MPE (8×) and 57.97 %MPE and 52.05 %MPE | Tail flick latency (CD1 mice): 10 (8×) and 7.1 and 6.5
